The target of the experiment is Rv2466c (rRv2466c; Mrx-2) (Mycobacterium tuberculosis, UniProt O53193).

Structures are written as SMILES.

We go through one molecule from publication PMC5952258, “Identification of a Mycothiol-Dependent Nitroreductase from Mycobacterium tuberculosis” (ACS Infectious Diseases, 2018).

Sequence of Rv2466c (rRv2466c; Mrx-2) (O53193 whole entry): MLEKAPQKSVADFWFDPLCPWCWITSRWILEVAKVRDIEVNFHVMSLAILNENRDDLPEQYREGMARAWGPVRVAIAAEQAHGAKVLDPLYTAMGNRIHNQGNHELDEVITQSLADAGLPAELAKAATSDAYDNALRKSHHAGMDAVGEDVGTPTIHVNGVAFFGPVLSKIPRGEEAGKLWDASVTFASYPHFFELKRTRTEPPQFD

As for `CC(=O)N[C@@H](CSSC[C@H](NC(C)=O)C(=O)N[C@H]1[C@@H](O[C@@H]2[C@H](O)[C@H](O)[C@@H](O)[C@H](O)[C@H]2O)O[C@H](CO)[C@@H](O)[C@@H]1O)C(=O)N[C@H]1[C@@H](O[C@@H]2[C@H](O)[C@H](O)[C@@H](O)[C@H](O)[C@H]2O)O[C@H](CO)[C@@H](O)[C@@H]1O` [mycothione], the melting temperature shift entry is on record as “MSSM also caused a significant shift in the melting temperature”.
